Results published in patent US20050192371A1, “Preparation and use of photopolymerized microparticles” (priority 1998, published 2005).

Tests used:
[1] = Drug release / degradation of PMSA microparticles in phosphate-buffered saline; format: physicochemical; settings: FIG. 13; tacrine absorbance at 322 nm, Rose Bengal at 550 nm
Method: The centrifuge tube was shaken to disperse the particles throughout the solution and placed in a 37° C. temperature bath for 3 minutes. The tube was then immediately centrifuged, and the buffer was drawn off and analyzed for drug concentration. The centrifuge tube was refilled with 37° C. PBS, and the cycle was repeated for about 3 hours. The tubes remained in the temperature bath for 3 minutes for the first hour, and 5-10 minutes for the remainder of the time data was collected. UV-Vis spectrophotrometry (Model 8452, Hewlett Packard) was used to determine the concentration of tacrine (absorbance was measured at 322 nm) in experiment samples.
Drug release experiments illustrate the release properties of the microparticles formed in the photopolymerization PCA process. […] The Rose Bengal release profile is also affected by photobleaching of particles in room light. This may explain the lag time at the beginning of the Rose Bengal release in FIG. 13.

[2] = Release of Rose Bengal from MSA disks versus mass fraction degraded; format: physicochemical; settings: FIG. 14; homogeneous and heterogeneous MSA disks, 10 ml PBS, 37° C., absorbance 550 nm
Excerpt: Crosslinked particles containing Rose Bengal were incorporated in a MSA matrix and polymerized into disks. Rose Bengal was also homogeneously incorporated into another set of MSA disks and polymerized. Advantages of using a particle-polymer composite include multi-mode degradation and release possible through the use of different biocompatible polymers and drugs, ease of control of surface degradation, and in one particular application, bone growth is facilitated by the resulting porous structures.
Disk samples were 0.25 to 0.3 grams, 13 mm diameter and 1.5 mm thick. Disks were placed in 10 ml of PBS buffer at 37° C. to monitor the degradation.
The absorbance of Rose Bengal was measured at 550 nm, and the disks were weighed to monitor the degradation.

Compound	release profile from PMSA particles into PBS buffer [1]	release behavior as a function of the mass fraction of the disks degraded [2]
Nc1c2c(nc3ccccc13)CCCC2 [tacrine, 9-amino-1,2,3,4-tetrahydroacridine]	follows the curve for surface erosion of a sphere	–
O=C([O-])c1c(Cl)c(Cl)c(Cl)c(Cl)c1-c1c2cc(I)c(=O)c(I)c-2oc2c(I)c([O-])c(I)cc12.[Na+].[Na+] [Rose Bengal]	some influence of diffusion in the release	linear relationship between degradation and release
